“And” between values parts separate entries of the source, which are not always exact repeats. Equal values may be shown once.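 A five-concentration, 48-hour dose response in 96-well plates underlies each endpoint, interpolated linearly between surrounding concentrations. Abbreviation: GI50, concentration required for 50% inhibition of growth. The concentration for full growth arrest is given as TGI.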
Legend:
Assay in all cases: NCI tumour cell line growth inhibition, 48 h
HOP-62 NSCLC = system: HOP-62 NSCLC
KM12 colon = system: KM12 colon
HCC-2998 colon = system: HCC-2998 colon
SNB-75 CNS = system: SNB-75 CNS
SK-OV-3 ovarian = system: SK-OV-3 ovarian
UO-31 renal = system: UO-31 renal
LOX IMVI melanoma = system: LOX IMVI melanoma
HOP-92 NSCLC = system: HOP-92 NSCLC
SF-295 CNS = system: SF-295 CNS
SF-268 CNS = system: SF-268 CNS

SMILES	TGI (HOP-62 NSCLC)	TGI (KM12 colon)	TGI (HCC-2998 colon)	TGI (SNB-75 CNS) [µM]	TGI (SK-OV-3 ovarian)	TGI (UO-31 renal) [µM]	TGI (LOX IMVI melanoma) [µM]	TGI (HOP-92 NSCLC) [µM]	TGI (SF-295 CNS) [µM]	TGI (SF-268 CNS) [µM]	GI50 (HOP-62 NSCLC) [µM]	GI50 (KM12 colon) [µM]	GI50 (HCC-2998 colon) [µM]	GI50 (SNB-75 CNS) [µM]	GI50 (SK-OV-3 ovarian) [µM]	GI50 (UO-31 renal) [µM]	GI50 (LOX IMVI melanoma) [µM]	GI50 (HOP-92 NSCLC) [µM]	GI50 (SF-295 CNS) [µM]	GI50 (SF-268 CNS) [µM]
N#C/C(=C\c1cccc(O)c1)C(N)=O	> 100 µM	> 100 µM	> 100 µM	95.4	> 100 µM	> 100	> 100	> 100	> 100	> 100										
CCCCCCCCCCCCCC(=O)CBr	50.6 µM	16.9 µM	32.1 µM	16	43.2 µM	24	23	6.43	29.3	20										
Cc1nc2sc(C(=O)Nc3ccccc3)c(N)c2cc1C(=O)/C=C/c1ccccc1	5.13 µM	3.38 µM	3.28 µM	6.12	23.3 µM	2.89	3.13	7.07	7.56	9.93	2.15	1.73	1.77	2.18	4.03	1.54	1.68	2.07	2.77	2.94
COc1ccc2c(c1)OC(N(C(C)=O)C(C)=O)=C(C#N)C2c1ccc(F)cc1 (stereo not given)	> 100 µM	> 100 µM	> 100 µM	> 100	> 100 µM	> 100	> 100	90.4	> 100	> 100	1.7	0.664	4.93	1.28	2.47	4.19	3.26	10.9	2.83	9.47
CC(=O)OCC1OC(n2ccc(=O)[nH]c2=O)C(OC(C)=O)C1OC(C)=O (stereo not given)	> 100 µM	> 100 µM	> 100 µM	> 100	> 100 µM	> 100	> 100	> 100	> 100	> 100	> 100	> 100	> 100	> 100	> 100	> 100	> 100	> 100	> 100	> 100
COc1cc(-c2cn(-c3ccc(Cl)cc3)c(C)c2C(=O)C(F)(F)F)cc(OC)c1OC	> 100 µM	> 100 µM	> 100 µM	> 100	> 100 µM	> 100	> 100	56	> 100	> 100	> 100	> 100	> 100	56.9	> 100	19.2	> 100	2.27	> 100	> 100
CC(=O)c1cc([N+](=O)[O-])ccc1OCC(=O)O	> 100 µM	> 100 µM	> 100 µM	> 100	> 100 µM	> 100	> 100	> 100	> 100	> 100										
CCCCn1cnc2c(SC)ncnc21	> 100 µM	> 100 µM	> 100 µM	> 100	> 100 µM	> 100	> 100	> 100	> 100	> 100										
CC/C=C\C/C=C\C/C=C\CCCCCCCC(=O)OCC	> 100 µM	> 100 µM	> 100 µM	> 100	> 100 µM	> 100	> 100	> 100	> 100	> 100										
O=C(CN1CCN(c2ccccc2)CC1)N1CCc2c([nH]c3ccccc23)C1c1cccnc1 (stereo not given)	> 100 µM	> 100 µM	> 100 µM	23.4	> 88.3 µM	> 100	> 100	> 66.3	84.8	> 100										
CC1=C(O)C(=O)C2C(=O)C1C(C)C2c1ccc(Cl)cc1 (stereo not given)	> 100 µM	> 100 µM	> 100 µM	> 100	> 100 µM	> 100	> 100	> 100	> 100	> 100										
O=C(CSC(=S)N1CCOCC1)Nc1nc2c(s1)CCCC2	> 100 µM	> 100 µM	61.2 µM	> 100	> 100 µM	> 100	> 100	96.2	> 100	> 100										
c1cnc2[nH]cc(-c3csc(-c4cn(CCCCN5CCOCC5)c5ccccc45)n3)c2c1	3.7 µM	3.34 µM	3.26 µM	2.54	5.74 µM	2.53	3.26	3.13	4.04	3.71	1.7	1.72	1.74	1.19	2.34	1.15	1.74	1.43	1.92	1.76
Clc1nc(Cl)c2c(ncn2C/C=C\Cn2cnc3c(Cl)nc(Cl)nc32)n1	5.21 µM	3.41 µM	3.05 µM	6.68	9.07 µM	4.35	2.85	3.58	21.1	5.49	2.35	1.82	1.5	2.19	2.48	2.08	1.36	1.89	8.99	1.74
CCC(CC)n1c(C)nc2c1C(=O)c1ccccc1C2=O	> 100 µM	> 100 µM	> 100 µM	> 100	> 100 µM	> 100	54.7	> 100	> 100	> 100										
CSc1nc2c(nc(N)n2C2OCC(O)C(O)C2O)c(=O)n1C (stereo not given)	> 100 µM	> 100 µM	> 100 µM	> 100	> 100 µM	> 100	> 100	> 100	> 100	> 100										
N#CC(C(=O)C(=O)NCCCNC(=O)C(=O)C(C#N)c1ccccc1)c1ccccc1 (stereo not given)	> 100 µM	> 100 µM	> 100 µM	> 100	> 100 µM	> 100	> 100	> 100	> 100	> 100										

SMILES	TGI (HOP-62 NSCLC)	TGI (KM12 colon)	TGI (HCC-2998 colon)	TGI (SNB-75 CNS) [µM]	TGI (SK-OV-3 ovarian)	TGI (UO-31 renal) [µM]	TGI (LOX IMVI melanoma) [µM]	TGI (HOP-92 NSCLC) [µM]	TGI (SF-295 CNS) [µM]	TGI (SF-268 CNS) [µM]	GI50 (HOP-62 NSCLC) [µM]	GI50 (KM12 colon) [µM]	GI50 (HCC-2998 colon) [µM]	GI50 (SNB-75 CNS) [µM]	GI50 (SK-OV-3 ovarian) [µM]	GI50 (UO-31 renal) [µM]	GI50 (LOX IMVI melanoma) [µM]	GI50 (HOP-92 NSCLC) [µM]	GI50 (SF-295 CNS) [µM]	GI50 (SF-268 CNS) [µM]
Cc1cc2c3ccccc3n(C)c2c2c1C(=O)C=CC2=O	49.9 µM	33.6 µM	39.8 µM	60	53.4 µM	46.4	32.9	25	54.3	39.1										
COC(=O)CNC(=O)[C@@H](OC)[C@@H]1Cc2cc3cc(OC4CC(OC5CC(O)C(O)C(C)O5)C(O)C(C)O4)c(C)c(O)c3c(O)c2C(=O)[C@H]1OC1CC(OC2CC(OC3CC(C)(O)C(O)C(C)O3)C(O)C(C)O2)C(O)C(C)O1 (stereo not given in full)	> 50 µM	> 50 µM	1.7 µM	0.9	> 50 µM	12.8	> 50	4.59	> 50	> 50	0.0908	0.127	0.207	0.127	0.444	0.45	0.0592	0.184	0.109	0.196
CC1OC2CC(=O)OC2C2=C1C(=O)c1c(O)c3c(c(O)c1C2=O)C1CC(O)C3(O)C(C)O1 (stereo not given)	2.8 µM	2.02 µM	1.67 µM	3.64	11.1 µM	1.53	0.476	3.56	3.29	1.15	0.826	0.664	0.442	1.59	3.24	0.3	0.104	1.06	0.975	0.303
CC12CCC(=O)C=C1CCC1C2C(O)CC2(C)C(c3csc(N)n3)CCC12 (stereo not given)	> 100 µM	> 100 µM	> 100 µM	> 100	> 100 µM	> 100	> 100	> 100	> 100	> 100										
COc1cc(Nc2nc(N[C@H]3CCCC[C@@H]3N)nc3cc[nH]c(=O)c23)cc(OC)c1	20.8 µM	3.11 µM	11.5 µM	17.3	17.5 µM	21.5	1.77	9.13	4.46	17.7	3.21	0.422	1.7	3.27	0.388	6.72	0.468	1.06	1.5	2.17
C=C1CC[C@@H]2[C@](C)(COC(C)=O)[C@H](OC(C)=O)CC[C@@]2(C)[C@@H]1CC(Nc1ccc(S(=O)(=O)Nc2nccc(C)n2)cc1)C1=CCOC1=O (stereo not given in full)	22.5 µM	16.4 µM	17.9 µM	14.9	25.3 µM	10.6	3.24	18.9	25.6	20.9	10.3	4.59	4.98	2.69	12.7	2.91	1.53	6.24	12.4	6.19
Cc1ccc(C(O)c2cnc(C)n2Cc2ccccc2)cc1 (stereo not given)	> 100 µM	> 100 µM	> 100 µM	> 100	> 100 µM	> 100	> 100	> 100	> 100	> 100										
O=C(CCl)N1c2ccccc2Sc2c1ccc1ccccc21	12.9 µM	20.1 µM	3.59 µM	7.78	26.2 µM	3.8	2.42	5.32	6.53	3.47	3.29	6.31	2.02	2.45	13.4	1.71	1.12	1.04	2.38	1.88
Cc1cc(=O)oc2cc3c(cc12)Oc1ccccc1O3	> 100 µM	> 100 µM	> 10 µM	59.9	> 100 µM	> 100	> 100	> 100	> 100	> 100										
COc1nc2nccc-2c2occn12	> 100 µM	> 100 µM	> 100 µM	> 100	> 100 µM	> 100	> 100	> 100	> 100	> 100										
CCOc1ccc(NCc2cc(OC)c(OC)c(OC)c2)cc1	> 36.6 µM and 24.7 µM	> 81.5 µM and 46.4 µM	98.7 µM and > 50 µM	> 100	22.8 µM and 24.8 µM	> 100	> 84	> 91.6	3.44	> 100										
CCc1cc(O)c(Cl)c(C)c1Cl	33.2 µM	28.5 µM	32.7 µM	34.1	34.5 µM	33.2	31.8	33.7	42.5	> 100										
OCCCCCCOc1ccc(-c2cc(-c3ccccn3)nc(-c3ccccn3)c2)cc1	1.66 µM	2.42 µM	16.3 µM	3.11	1.59 µM	2.45	1.02	14.8	1.64	1.32										
CCOC(=O)NN1C(=O)C(=P(c2ccccc2)(c2ccccc2)c2ccccc2)C(C(=O)OCC)=C1C	> 100 µM	> 100 µM	> 100 µM	> 100	> 100 µM	> 100	> 100	> 100	> 100	> 100										
COc1cccc(C2c3cc4c(cc3OC(O)(CO)C2C(=O)O)OCO4)c1 (stereo not given) (tested in a mixture with another compound)	> 100 µM	> 100 µM	> 100 µM	54	> 100 µM	> 100	> 100	79.9	> 100	> 100										
CCCCN(Cc1ccc(F)cc1)c1ccc(CO)c(Cl)c1	23.4 µM	33 µM	26.7 µM	26.1	28.2 µM	23.6	31.5	19.5	17.2	36	11.1	17.5	12.4	13.1	15	10.6	16.3	3.32	3.96	19.3

From PubChem BioAssay (NCI)
